Tests used:
A20 [1] = assay: Hoechst 33342 nuclear staining (Table 3); type: cell-based, mouse; design: key: 0 relating to no activity; 1 relating to weak activity comprising less than 50% of the cells; score 2 relating to strong activity comprising more than 50% of the cells
Procedure: (§1) This assay is performed in 96 well tissue culture plates. Appropriate number of cells (adherent cells: 3 - 5*10^3, suspension cells: 8 - 10*10^3) are being seeded out in 80 µl complete medium. Adherent cells are incubated for 24 h for proper spreading out before addition of test compounds while suspension cells are immediately treated with test compounds after seeding out. The test compounds are added in 20 µl complete medium containing max 5% DMSO. The final compound concentrations in the assays are 10 µM, 3 µM,1 µM and 0.3 µM, respectively. After 24 h or 48 h incubation at culture conditions, 10 µl medium containing Hoechst 33342 dye (Sigma B-2261) at 2-5 µg/ml are added to each well. The assay plates are then further incubated for 30 minutes and subsequently analyzed with a standard inverted fluorescence microscope. The readout allows the determination of the fraction of apoptotic nuclei as well as other morphological criteria specific for apoptosis as a function of the treatment. The following scores are used: 0 relating to no activity, 1 relating to weak activity comprising less than 50% of the cells and score 2 relating to strong activity comprising more than 50% of the cells.

HeLa [2] = assay: Hoechst 33342 nuclear staining (Table 3); type: cell-based, human; design: key: 0 relating to no activity; 1 relating to weak activity comprising less than 50% of the cells; score 2 relating to strong activity comprising more than 50% of the cells
Procedure: as §1

Jurkat [3] = assay: Hoechst 33342 nuclear staining (Table 3); type: cell-based, human; design: key: 0 relating to no activity; 1 relating to weak activity comprising less than 50% of the cells; score 2 relating to strong activity comprising more than 50% of the cells
Procedure: as §1

K562 = assay: Hoechst 33342 nuclear staining (Table 3); type: cell-based, human; design: key: 0 relating to no activity; 1 relating to weak activity comprising less than 50% of the cells; score 2 relating to strong activity comprising more than 50% of the cells
Procedure: as §1

Ramos [4] = assay: Hoechst 33342 nuclear staining (Table 3); type: cell-based, human; design: key: 0 relating to no activity; 1 relating to weak activity comprising less than 50% of the cells; score 2 relating to strong activity comprising more than 50% of the cells; conditions: 24h
Procedure: as §1

HeLa [5] = assay: AnnexinV/7-AAD staining; type: cell-based, human; conditions: 10 µM, 24 h treatment
Procedure: (§2) Adherent cells (1 - 2*10^5) are 24 h prior to compound treatment seeded into 24 well tissue culture plates. Suspension cells are pipetted into P-tubes immediately before treatment. Test compounds are added leading to a final concentrations of 10 µM. After 24 h treatment cells are harvested (in case of adherent cells by trypsinization) and transferred to FACS tubes (BD Biosciences). After centrifugation and removal of the supernatant, 100 µl complete medium containing AnnexinV-GST (10 µg) is added, mixed and incubated at 4°C for 30 minutes. Subsequently, the cells are washed once with medium and incubated with 100 µl anti-GST Alexa 488 (Molecular Probes A-11131) in medium diluted 1:500 for 30 minutes at 4°C. Then, cells are washed once and stained with 1 µg/ml 7-aminoactinomycin D (7-AAD) (Molecular Probes A-1310) in 250 µl medium and analyzed on the FACSCalibur™. AnnexinV is measured in FL1 whereas 7-AAD is measured in FL3. In Table 5 the percentage of positively stained cells after treatment with the respective compounds are indicated. The following scores are used: Score 0 relates to less than 10%, score 1 relates to more than 10% but less than 50% and score 2 relates to more than 50% positivity.

Jurkat [6] = assay: AnnexinV/7-AAD staining; type: cell-based, human; conditions: 10 µM, 24 h treatment
Procedure: as §2

Ramos [7] = assay: AnnexinV/7-AAD staining; type: cell-based, human; conditions: 10 µM, 24 h treatment
Procedure: as §2

A20 [8] = assay: AnnexinV/7-AAD staining; type: cell-based, mouse; conditions: A20, 10 µM, 24 h treatment
Procedure: as §2

Substance: [2-(3-Methoxy-6,6-dimethyl-5,6-dihydro-6a,7,12-triaza-dibenzofluoren-2-yloxy)-ethyl]-dimethyl-amine [No. 6]
- Hoechst 33342 nuclear staining (A20 [1]; A20, 24h, conc 0.3 (µM)): 0
- Hoechst 33342 nuclear staining (A20 [1]; A20, 24h, conc 1 (µM)): 0
- Hoechst 33342 nuclear staining (A20 [1]; A20, 24h, conc 3 (µM)): 0
- Hoechst 33342 nuclear staining (A20 [1]; A20, 24h, conc 10 (µM)): 0
- Hoechst 33342 nuclear staining (A20 [1]; A20, 48h, conc 0.3 (µM)): 0
- Hoechst 33342 nuclear staining (A20 [1]; A20, 48h, conc 1 (µM)): 0
- Hoechst 33342 nuclear staining (A20 [1]; A20, 48h, conc 3 (µM)): 0
- Hoechst 33342 nuclear staining (A20 [1]; A20, 48h, conc 10 (µM)): 2 (score 2 relating to strong activity comprising more than 50% of the cells)
- Hoechst 33342 nuclear staining (HeLa [2]; 24h, conc 0.3 (µM)): 0
- Hoechst 33342 nuclear staining (HeLa [2]; 24h, conc 1 (µM)): 0
- Hoechst 33342 nuclear staining (HeLa [2]; 24h, conc 3 (µM)): 0
- Hoechst 33342 nuclear staining (HeLa [2]; 24h, conc 10 (µM)): 2 (score 2 relating to strong activity comprising more than 50% of the cells)
- Hoechst 33342 nuclear staining (HeLa [2]; 48h, conc 0.3 (µM)): 0
- Hoechst 33342 nuclear staining (HeLa [2]; 48h, conc 1 (µM)): 0
- Hoechst 33342 nuclear staining (HeLa [2]; 48h, conc 3 (µM)): 0
- Hoechst 33342 nuclear staining (HeLa [2]; 48h, conc 10 (µM)): 2 (score 2 relating to strong activity comprising more than 50% of the cells)
- Hoechst 33342 nuclear staining (Jurkat [3]; 24h, conc 0.3 (µM)): 0
- Hoechst 33342 nuclear staining (Jurkat [3]; 24h, conc 1 (µM)): 0
- Hoechst 33342 nuclear staining (Jurkat [3]; 24h, conc 3 (µM)): 0
- Hoechst 33342 nuclear staining (Jurkat [3]; 24h, conc 10 (µM)): 2 (score 2 relating to strong activity comprising more than 50% of the cells)
- Hoechst 33342 nuclear staining (Jurkat [3]; 48h, conc 0.3 (µM)): 0
- Hoechst 33342 nuclear staining (Jurkat [3]; 48h, conc 1 (µM)): 2 (score 2 relating to strong activity comprising more than 50% of the cells)
- Hoechst 33342 nuclear staining (Jurkat [3]; 48h, conc 3 (µM)): 2 (score 2 relating to strong activity comprising more than 50% of the cells)
- Hoechst 33342 nuclear staining (Jurkat [3]; 48h, conc 10 (µM)): 2 (score 2 relating to strong activity comprising more than 50% of the cells)
- Hoechst 33342 nuclear staining (K562; K562, 24h, conc 0.3 (µM)): 0
- Hoechst 33342 nuclear staining (K562; K562, 24h, conc 1 (µM)): 0
- Hoechst 33342 nuclear staining (K562; K562, 24h, conc 3 (µM)): 0
- Hoechst 33342 nuclear staining (K562; K562, 24h, conc 10 (µM)): 2 (score 2 relating to strong activity comprising more than 50% of the cells)
- Hoechst 33342 nuclear staining (K562; K562, 48h, conc 0.3 (µM)): 0
- Hoechst 33342 nuclear staining (K562; K562, 48h, conc 1 (µM)): 0
- Hoechst 33342 nuclear staining (K562; K562, 48h, conc 3 (µM)): 0
- Hoechst 33342 nuclear staining (K562; K562, 48h, conc 10 (µM)): 2 (score 2 relating to strong activity comprising more than 50% of the cells)
- Hoechst 33342 nuclear staining (Ramos [4]; conc 0.3 (µM)): 0
- Hoechst 33342 nuclear staining (Ramos [4]; conc 1 (µM)): 0
- Hoechst 33342 nuclear staining (Ramos [4]; conc 3 (µM)): 0
- Hoechst 33342 nuclear staining (Ramos [4]; conc 10 (µM)): 2 (score 2 relating to strong activity comprising more than 50% of the cells)
- percentage of positively stained cells (AnnexinV/7-AAD staining) (HeLa [5]): 2 (score 2 relates to more than 50% positivity)
- percentage of positively stained cells (AnnexinV/7-AAD staining) (Jurkat [6]): 2 (score 2 relates to more than 50% positivity)
- percentage of positively stained cells (AnnexinV/7-AAD staining) (Ramos [7]): 2 (score 2 relates to more than 50% positivity)
- percentage of positively stained cells (AnnexinV/7-AAD staining) (A20 [8]): 2 (score 2 relates to more than 50% positivity)

— patent publication EP1433789A1, “Pyrrolopyrazines and their use as selective apoptosis inducers” (Aponetics AG, priority 2002, dated 2004)
